Experimental data from patent publication US12258344B2, “Azaaromatic amide derivatives for the treatment of cancer” (SHENZHEN FORWARD PHARMACEUTICALS CO., LTD., priority 2019, dated 2025).
pIC50: −log10 of the molar value.

Tests used:
Type in all cases: cell-based
BaF3 (EGFR-V769insASV) = BaF3 (EGFR-V769insASV) (Homo sapiens, UniProt P00533, DUP767-769, cells depend on it); assay: Test 4: BaF3 (EGFR-V769insASV) cell proliferation test; conditions: 72 hours, Cell Titer-Glo, read-out: Test 4 - IC50
BaF3 (EGFR-V769insASV), sequence (P00533 with tags, fused parts or gaps DUP767-769): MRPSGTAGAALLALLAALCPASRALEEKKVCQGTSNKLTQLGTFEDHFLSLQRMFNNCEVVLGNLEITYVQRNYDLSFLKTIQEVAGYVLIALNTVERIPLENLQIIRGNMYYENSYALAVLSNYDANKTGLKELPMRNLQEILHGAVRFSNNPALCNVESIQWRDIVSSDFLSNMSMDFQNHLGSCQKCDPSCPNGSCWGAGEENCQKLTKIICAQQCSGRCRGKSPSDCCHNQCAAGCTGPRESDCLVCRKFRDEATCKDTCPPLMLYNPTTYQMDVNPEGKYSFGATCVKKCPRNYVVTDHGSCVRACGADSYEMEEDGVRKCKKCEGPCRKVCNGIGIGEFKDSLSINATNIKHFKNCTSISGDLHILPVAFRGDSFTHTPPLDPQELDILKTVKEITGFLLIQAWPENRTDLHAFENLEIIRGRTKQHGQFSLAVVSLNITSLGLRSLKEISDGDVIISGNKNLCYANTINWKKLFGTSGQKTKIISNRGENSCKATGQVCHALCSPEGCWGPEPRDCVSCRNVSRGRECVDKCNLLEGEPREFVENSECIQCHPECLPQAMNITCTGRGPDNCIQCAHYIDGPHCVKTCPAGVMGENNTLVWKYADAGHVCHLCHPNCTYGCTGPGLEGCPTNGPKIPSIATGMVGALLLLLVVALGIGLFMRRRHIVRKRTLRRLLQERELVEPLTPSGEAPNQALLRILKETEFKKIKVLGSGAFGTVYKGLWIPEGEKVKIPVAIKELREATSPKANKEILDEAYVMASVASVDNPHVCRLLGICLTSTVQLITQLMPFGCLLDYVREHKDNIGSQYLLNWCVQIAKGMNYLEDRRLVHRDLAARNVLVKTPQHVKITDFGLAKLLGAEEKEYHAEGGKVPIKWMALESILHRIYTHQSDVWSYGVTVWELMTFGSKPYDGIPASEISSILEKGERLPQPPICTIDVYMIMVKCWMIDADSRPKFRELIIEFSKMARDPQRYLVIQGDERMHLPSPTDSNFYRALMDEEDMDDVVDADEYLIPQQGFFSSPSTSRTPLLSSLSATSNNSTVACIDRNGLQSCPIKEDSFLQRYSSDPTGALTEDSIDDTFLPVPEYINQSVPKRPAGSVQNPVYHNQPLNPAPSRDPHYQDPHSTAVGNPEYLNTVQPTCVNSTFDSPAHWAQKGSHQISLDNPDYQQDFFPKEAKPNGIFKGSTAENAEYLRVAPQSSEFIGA
Experimental: Test 4: BaF3 (EGFR-V769insASV) Cell Proliferation Test
BaF3 (EGFR-V769insASV) was cultured in RPMI1640 medium containing 10% fetal bovine serum and 2 mM glutamine. The cells were grown at 37° C. in a humidified incubator with 5% CO2.
(§1) The number of viable cells in the culture was measured according to the protocol described in Promega's Cell Titer-Glo Luminescent cell Viability Assay (Promega catalog number #G7570). 90 μl of cells (3,000 cells/well) were cultured in growth medium in a Corning black transparent bottom 96-well plate, and cultured in a 5% CO2 humidified incubator at 37° C. overnight. The compound serially diluted in 100% DMSO was added to the cells using a pipette, and the cells were incubated for another 72 hours. 100 μl of the mixed Cell Titer-Glo reagent was added to the cells in the 96-well culture plate to lyse the cells and mix gently. Subsequently, the […] was detected on the Envision microplate detector to obtain the data of each compound. Finally, the data was input into a suitable software package (such as Prism) for curve fitting analysis.

BaF3 (EGFR-D770insSVD) = BaF3 (EGFR-D770insSVD) (Homo sapiens, UniProt P00533, DUP768-770, cells depend on it); assay: Test 2: BaF3 (EGFR-D770insSVD) cell proliferation test; conditions: 72 hours, Cell Titer-Glo, read-out: Test 2 - IC50
BaF3 (EGFR-D770insSVD), sequence (P00533 with tags, fused parts or gaps DUP768-770): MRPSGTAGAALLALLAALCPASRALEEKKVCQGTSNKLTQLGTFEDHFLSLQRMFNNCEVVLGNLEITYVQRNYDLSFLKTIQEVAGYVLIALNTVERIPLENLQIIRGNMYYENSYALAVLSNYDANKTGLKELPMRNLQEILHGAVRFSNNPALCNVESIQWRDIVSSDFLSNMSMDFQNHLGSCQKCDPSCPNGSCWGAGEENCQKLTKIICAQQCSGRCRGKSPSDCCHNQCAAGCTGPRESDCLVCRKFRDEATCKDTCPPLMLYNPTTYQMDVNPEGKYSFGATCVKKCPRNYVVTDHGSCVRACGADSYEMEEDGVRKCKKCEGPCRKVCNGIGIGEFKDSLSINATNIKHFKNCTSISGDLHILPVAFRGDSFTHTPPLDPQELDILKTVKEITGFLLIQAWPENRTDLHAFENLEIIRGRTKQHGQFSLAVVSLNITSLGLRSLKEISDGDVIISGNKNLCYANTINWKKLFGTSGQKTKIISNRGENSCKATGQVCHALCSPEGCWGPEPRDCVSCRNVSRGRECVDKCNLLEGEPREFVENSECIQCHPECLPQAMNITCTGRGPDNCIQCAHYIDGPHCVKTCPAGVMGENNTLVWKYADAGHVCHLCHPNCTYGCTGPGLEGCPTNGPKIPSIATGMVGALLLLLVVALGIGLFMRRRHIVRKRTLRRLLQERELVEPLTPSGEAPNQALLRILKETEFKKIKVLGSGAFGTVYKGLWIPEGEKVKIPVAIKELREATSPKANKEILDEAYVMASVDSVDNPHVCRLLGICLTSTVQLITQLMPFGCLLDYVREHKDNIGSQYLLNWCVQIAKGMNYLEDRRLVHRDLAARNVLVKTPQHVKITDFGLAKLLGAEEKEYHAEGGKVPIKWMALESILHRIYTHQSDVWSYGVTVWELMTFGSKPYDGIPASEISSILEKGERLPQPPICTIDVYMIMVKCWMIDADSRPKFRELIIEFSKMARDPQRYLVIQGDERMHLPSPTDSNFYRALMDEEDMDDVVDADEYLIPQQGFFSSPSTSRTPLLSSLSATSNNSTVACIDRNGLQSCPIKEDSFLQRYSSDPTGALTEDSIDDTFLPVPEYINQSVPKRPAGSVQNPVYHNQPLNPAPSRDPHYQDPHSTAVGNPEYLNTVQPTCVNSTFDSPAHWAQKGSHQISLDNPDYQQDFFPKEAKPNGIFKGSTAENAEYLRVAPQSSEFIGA
Experimental: Test 2: BaF3 (EGFR-D770insSVD) Cell Proliferation Test
BaF3 (EGFR-D770insSVD) was cultured in RPMI1640 medium containing 10% fetal bovine serum and 2 mM glutamine. The cells were grown at 37° C. in a humidified incubator with 5% CO2.
as §1

[1] = test system: NCI-H1975 (EGFR L858R/T790M double mutant); assay: Test 1: EGFR L858R/T790M (EGFR double mutant) cell proliferation test; conditions: Homo sapiens; NCI-H1975 cells, 72 hours, Cell Titer-Glo

GI50 (BaF3 (EGFR-V769insASV))	GI50 (BaF3 (EGFR-D770insSVD))	pIC50 [1]	Compound
47.9 nM	22.3 nM	7.87	C=CC(=O)Nc1cc(Nc2ncnc(-c3cn(C)c4ccc(F)cc34)n2)c(OC)cc1N(C)CCN(C)C [Example 11]
25.9 nM	16.4 nM	7.77	C=CC(=O)Nc1cc(Nc2ncnc(-c3cn(C)c4ccc(F)cc34)n2)c(OC(F)F)cc1N(C)CCN(C)C [Example 14, N-(4-(difluoromethoxy)-2-((2-(dimethylamino)ethyl)(methyl)amino)-5-((4-(5-fluoro-1-methyl-1H-indol-3-yl)-1,3,5-triazin-2-yl)amino)phenyl)acrylamide]
45 nM	24.4 nM	7.90	C=CC(=O)Nc1cc(Nc2ncnc(-c3cn(C)c4ccc(F)cc34)n2)c(OCC(F)(F)F)cc1N(C)CCN(C)C [Example 15, N-(2-((2-(dimethylamino)ethyl)(methyl)amino)-5-((4-(5-fluoro-1-methyl-1H-indol-3-yl)-1,3,5-triazin-2-yl)amino)-4-(2,2,2-trifluoroethoxy)phenyl)acrylamide]
